Data published in patent publication US9168259B2 (GRÜNENTHAL GMBH, priority 2010, dated 2015).
Read-outs that look alike come from different tables or passages of the source.

Molecular target: T1, KCNQ2/3 channels (Homo sapiens, UniProt O43525+O43526)
T1 construct: expressed in transfected cells
Experiment: Fluorescence assay using a voltage sensitive dye (fluorimetry)
Type: cell-based

[1] = CHO-K1, plateau effect relative to saturated retigabine (50 μM) = 100%, CHO-K1 cells expressing KCNQ2/3, negative values = antagonistic, read-out: Fluorimetry % efficacy (retigabine = 100%)
[2] = CHO-K1 cells expressing KCNQ2/3, IC50 where % efficacy is negative, read-out: Fluorimetry EC50/IC50
[3] = CHO-K1, read-out: Fluorimetry % efficacy (retigabine = 100%)

T1 sequence (O43526 whole entry): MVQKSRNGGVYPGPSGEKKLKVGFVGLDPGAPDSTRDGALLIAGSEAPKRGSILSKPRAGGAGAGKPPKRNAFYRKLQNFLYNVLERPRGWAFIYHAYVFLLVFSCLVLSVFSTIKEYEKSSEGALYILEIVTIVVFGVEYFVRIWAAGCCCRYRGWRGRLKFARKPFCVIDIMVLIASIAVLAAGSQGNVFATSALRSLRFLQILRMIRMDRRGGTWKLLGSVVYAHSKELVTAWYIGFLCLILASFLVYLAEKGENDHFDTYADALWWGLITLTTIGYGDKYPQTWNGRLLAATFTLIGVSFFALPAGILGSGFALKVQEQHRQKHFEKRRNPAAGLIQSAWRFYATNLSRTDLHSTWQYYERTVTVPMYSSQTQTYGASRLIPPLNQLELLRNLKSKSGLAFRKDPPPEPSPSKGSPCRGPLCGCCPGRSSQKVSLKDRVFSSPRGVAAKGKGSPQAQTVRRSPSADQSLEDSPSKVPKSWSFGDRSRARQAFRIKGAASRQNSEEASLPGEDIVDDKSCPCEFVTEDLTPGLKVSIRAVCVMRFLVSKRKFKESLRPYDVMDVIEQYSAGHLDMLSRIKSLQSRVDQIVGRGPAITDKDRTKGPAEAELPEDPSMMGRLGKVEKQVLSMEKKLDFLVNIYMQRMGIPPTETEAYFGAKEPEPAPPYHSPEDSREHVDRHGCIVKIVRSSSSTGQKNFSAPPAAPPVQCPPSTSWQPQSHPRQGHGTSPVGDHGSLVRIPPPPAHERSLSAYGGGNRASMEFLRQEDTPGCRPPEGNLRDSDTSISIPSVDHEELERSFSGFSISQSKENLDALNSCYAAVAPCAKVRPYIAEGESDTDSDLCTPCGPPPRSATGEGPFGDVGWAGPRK
T1 sequence (O43525 whole entry): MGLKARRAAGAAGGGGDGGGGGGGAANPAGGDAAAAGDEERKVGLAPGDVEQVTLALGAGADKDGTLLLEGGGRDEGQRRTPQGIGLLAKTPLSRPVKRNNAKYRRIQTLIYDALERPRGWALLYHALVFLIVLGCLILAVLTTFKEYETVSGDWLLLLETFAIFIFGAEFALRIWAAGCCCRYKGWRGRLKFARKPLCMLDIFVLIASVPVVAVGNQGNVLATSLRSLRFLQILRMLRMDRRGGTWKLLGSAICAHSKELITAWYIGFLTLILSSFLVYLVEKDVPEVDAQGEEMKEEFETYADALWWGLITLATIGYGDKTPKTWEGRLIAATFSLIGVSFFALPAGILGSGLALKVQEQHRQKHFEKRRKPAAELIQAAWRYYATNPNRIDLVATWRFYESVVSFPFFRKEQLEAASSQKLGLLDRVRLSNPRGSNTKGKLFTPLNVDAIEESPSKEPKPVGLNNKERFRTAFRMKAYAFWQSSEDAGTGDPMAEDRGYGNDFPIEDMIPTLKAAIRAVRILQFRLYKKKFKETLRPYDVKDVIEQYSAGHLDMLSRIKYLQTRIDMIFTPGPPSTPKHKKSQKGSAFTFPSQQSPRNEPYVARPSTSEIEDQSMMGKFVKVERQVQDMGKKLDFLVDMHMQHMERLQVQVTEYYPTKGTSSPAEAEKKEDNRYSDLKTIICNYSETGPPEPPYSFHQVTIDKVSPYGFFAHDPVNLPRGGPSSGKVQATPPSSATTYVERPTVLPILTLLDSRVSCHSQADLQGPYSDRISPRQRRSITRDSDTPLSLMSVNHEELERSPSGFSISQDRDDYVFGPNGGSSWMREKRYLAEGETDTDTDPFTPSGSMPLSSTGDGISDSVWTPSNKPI

| Emax [1] [%] | EC50 [2] [nM] | Compound | EC50 [nM] | Emax [3] [%] |
| --- | --- | --- | --- | --- |
| 169 | 98 | Cc1cc(N2CCOCC2)nc(C2CC2)c1C(=O)NCc1cc(F)cc(F)c1 [Example 333, 2-Cyclopropyl-N-[(3,5-difluoro-phenyl)-methyl]-4-methyl-6-morpholin-4-yl-pyridine-3-carboxylic acid amide] | – | – |
| 124 | 96 | Cc1cc(N2CCOCC2)nc(C2CC2)c1C(=O)NCc1ccc(C(F)(F)F)cc1 [Example 334, 2-Cyclopropyl-4-methyl-6-morpholin-4-yl-N-[[4-(trifluoromethyl)-phenyl]-methyl]-pyridine-3-carboxylic acid amide] | – | – |
| 162 | 85 | Cc1cc(N2CCOCC2)nc(C2CC2)c1C(=O)NCc1ccc(Cl)cc1 [Example 335, N-[(4-Chlorophenyl)-methyl]-2-cyclopropyl-4-methyl-6-morpholin-4-yl-pyridine-3-carboxylic acid amide] | – | – |
| 183 | 430 | CCSc1nc(N2CCOCC2)cc(OC)c1C(=O)NCc1cccc(F)c1 [Example 336, 2-Ethylsulfanyl-N-[(3-fluorophenyl)-methyl]-4-methoxy-6-morpholin-4-yl-pyridine-3-carboxylic acid amide] | – | – |
| 237 | 117 | COCCSc1nc(N2CCOCC2)cc(C)c1C(=O)NCCCC(C)(C)C [Example 337, N-(4,4-Dimethyl-pentyl)-2-(2-methoxy-ethylsulfanyl)-4-methyl-6-morpholin-4-yl-pyridine-3-carboxylic acid amide] | – | – |
| 73 | 320 | CCSc1nc(N(CCCOC)Cc2ccc(F)cc2)cc(C)c1C(=O)NCc1cccc(F)c1 [Example 338, 2-Ethylsulfanyl-N-[(3-fluorophenyl)-methyl]-6-[(4-fluorophenyl)-methyl-(3-methoxy-propyl)-amino]-4-methyl-pyridine-3-carboxylic acid amide] | – | – |
| 202 | 37 | CCSc1nc(N2CCOCC2)cc(C)c1C(=O)NCCC(C)C(C)(C)C (stereo not drawn) [Example 339, 2-Ethylsulfanyl-4-methyl-6-morpholin-4-yl-N-(3,4,4-trimethyl-pentyl)-pyridine-3-carboxylic acid amide] | – | – |
| 152 | 274 | CCSc1nc(N2CCOCC2CCOC)cc(C)c1C(=O)NCc1cccc(F)c1 (stereo not drawn) [Example 340, 2-Ethylsulfanyl-N-[(3-fluorophenyl)-methyl]-6-[3-(2-methoxy-ethyl)-morpholin-4-yl]-4-methyl-pyridine-3-carboxylic acid amide] | – | – |
| 22 | – | CC(=O)N(C)c1nc(N2CCOCC2)cc(C)c1C(=O)NCc1cccc(F)c1 [Example 341, 2-(Acetyl-methyl-amino)-N-[(3-fluorophenyl)-methyl]-4-methyl-6-morpholin-4-yl-pyridine-3-carboxylic acid amide] | – | – |
| 124 | 291 | CCSc1nc(N(CCOC)Cc2ccc(F)cc2)cc(C)c1C(=O)NCc1cccc(F)c1 [Example 342, 2-Ethylsulfanyl-N-[(3-fluorophenyl)-methyl]-6-[(4-fluorophenyl)-methyl-(2-methoxy-ethyl)-amino]-4-methyl-pyridine-3-carboxylic acid amide] | – | – |
| 163 | 6840 | CCSc1nc(N2CCOCC2)cc(C)c1C(=O)NCCCC1(C)COC1 [Example 343, 2-Ethylsulfanyl-4-methyl-N-[3-(3-methyl-oxetan-3-yl)-propyl]-6-morpholin-4-yl-pyridine-3-carboxylic acid amide] | – | – |
| 253 | 41 | CCSc1nc(N2CCOCC2)cc(C)c1C(=O)NCC#CC(C)(C)C [Example 344, N-(4,4-Dimethyl-pent-2-ynyl)-2-ethylsulfanyl-4-methyl-6-morpholin-4-yl-pyridine-3-carboxylic acid amide] | – | – |
| 157 | 729 | CCSc1nc(N2CCOCC2)cc(COC)c1C(=O)NCc1cccc(F)c1 [Example 346, 2-Ethylsulfanyl-N-[(3-fluorophenyl)-methyl]-4-(methoxymethyl)-6-morpholin-4-yl-pyridine-3-carboxylic acid amide] | – | – |
| 156 | 41 | CCC(C)c1nc(N2CCOCC2)cc(C)c1C(=O)NCc1ccc(Cl)cc1 (stereo not drawn) [Example 347, N-[(4-Chlorophenyl)-methyl]-4-methyl-2-(1-methyl-propyl)-6-morpholin-4-yl-pyridine-3-carboxylic acid amide] | – | – |
| 228 | 22 | CCSc1nc(N2CCOCC2)cc(C)c1C(=O)NCCCC(C)(C)CC [Example 348, N-(4,4-Dimethyl-hexyl)-2-ethylsulfanyl-4-methyl-6-morpholin-4-yl-pyridine-3-carboxylic acid amide] | – | – |
| 216 | 284 | COCCOc1nc(N2CCOCC2)cc(C)c1C(=O)NCCCC(C)(C)C [Example 349, N-(4,4-Dimethyl-pentyl)-2-(2-methoxy-ethoxy)-4-methyl-6-morpholin-4-yl-pyridine-3-carboxylic acid amide] | – | – |
| 226 | 79 | CCSc1nc(N2CCOCC2)cc(C)c1C(=O)NCCCC1(C)CC1 [Example 350, 2-Ethylsulfanyl-4-methyl-N-[3-(1-methyl-cyclopropyl)-propyl]-6-morpholin-4-yl-pyridine-3-carboxylic acid amide] | – | – |
| 118 | 489 | COCc1cc(CNC(=O)c2c(C)cc(N3CCOCC3)nc2C2CC2)ccc1F [Example 351, 2-Cyclopropyl-N-[[4-fluoro-3-(methoxymethyl)-phenyl]methyl]-4-methyl-6-morpholin-4-yl-pyridine-3-carboxylic acid amide] | – | – |
| 166 | 287 | CCSc1nc(N2CCOC[C@H]2C)cc(C)c1C(=O)NCc1ccc(F)c(COC)c1 [Example 352, 2-Ethylsulfanyl-N-[[4-fluoro-3-(methoxymethyl)-phenyl]-methyl]-4-methyl-6-[(3R)-3-methyl-morpholin-4-yl]-pyridine-3-carboxylic acid amide] | – | – |
| 46 | – | CCSc1nc(N2CCOCC2)cc(C)c1C(=O)NCc1ccc(F)c(CO)c1 [Example 353, 2-Ethylsulfanyl-N-[[4-fluoro-3-(hydroxymethyl)-phenyl]-methyl]-4-methyl-6-morpholin-4-yl-pyridine-3-carboxylic acid amide] | – | – |
| 204 | 1540 | COCCCc1nc(N2CCOCC2)cc(C)c1C(=O)NCCCC(C)(C)C [Example 354, N-(4,4-Dimethyl-pentyl)-2-(3-methoxy-propyl)-4-methyl-6-morpholin-4-yl-pyridine-3-carboxylic acid amide] | – | – |
| 167 | 721 | COCc1ccc(CNC(=O)c2c(C)cc(N3CCOCC3)nc2C2CC2)cc1F [Example 355, 2-Cyclopropyl-N-[[3-fluoro-4-(methoxymethyl)-phenyl]methyl]-4-methyl-6-morpholin-4-yl-pyridine-3-carboxylic acid amide] | – | – |
| 140 | 6320 | COCc1nc(N2CCOCC2)cc(C)c1C(=O)NCc1cccc(F)c1 [Example 356, N-[(3-Fluorophenyl)-methyl]-2-(methoxymethyl)-4-methyl-6-morpholin-4-yl-pyridine-3-carboxylic acid amide] | – | – |
| 17 | – | CC(C)c1cc(N2CCOCC2)nc(C(C)C)c1C(=O)NCc1ccc(Cl)cc1 [Example 357, N-[(4-Chlorophenyl)-methyl]-2,4-diisopropyl-6-morpholin-4-yl-pyridine-3-carboxylic acid amide] | – | – |
| – | – | COCCc1nc(N2CCOCC2)cc(C)c1C(=O)NCCCC(C)(C)C [Example 358, N-(4,4-Dimethyl-pentyl)-2-(2-methoxy-ethyl)-4-methyl-6-morpholin-4-yl-pyridine-3-carboxylic acid amide] | 1130 | 234 |
| – | – | CCc1cc(N2CCOCC2)nc(CC)c1C(=O)NCc1ccc(Cl)cc1 [Example 359, N-[(4-Chlorophenyl)-methyl]-2,4-diethyl-6-morpholin-4-yl-pyridine-3-carboxylic acid amide] | 237 | 141 |

| Compound | Emax [1] [%] | EC50 [2] [nM] | EC50 [nM] | Emax [3] [%] |
| --- | --- | --- | --- | --- |
| CCSc1nc(N2C3CCC2COC3)cc(C)c1C(=O)NCc1cccc(F)c1 [Example 345, 2-Ethylsulfanyl-N-[(3-fluorophenyl)-methyl]-4-methyl-6-(3-oxa-8-azabicyclo[3.2.1]octan-8-yl)-pyridine-3-carboxylic acid amide] | 200 | 122 | – | – |
